In assay [1] the target is T1, PD1/PD-L1 (Homo sapiens, UniProt Q9NZQ7). The assay can be described thus: PD-1/PD-L1 homogeneous time-resolved fluorescence (HTRF) binding experiment. Also noted: purchased BPS Biosciences. Particulars: HTRF (TR-FRET), PD-L1-biotin, PD1-Eu. An excerpt:
Experimental Example 1: PD-1/PD-L1 Homogenouse Time-Resolved Fluorescence (HTRF) Binding Experiment
When the PD-1 molecule as the donor is very close to the PD-L1 molecule as the acceptor, the donor molecule will transfer the energy to the receptor molecule, which in turn causes the receptor molecule to emit fluorescence. The ability of small molecules to prevent the binding of PD-L1 to PD-1 can be tested by detecting the intensity of fluorescence. A homogeneous time-resolved fluorescence (HTRF) binding experiment is used to detect the ability of the compounds of the present disclosure to inhibit the binding of PD-1/PD-L1.
PD1/PD-L1 TR-FRET detection kit was purchased from BPS Biosciences. Nivo multi-label analyzer (PerkinElmer).
PD1-Eu, Dye-labeled acceptor, PD-L1-biotin and compounds to be tested were diluted with the buffer in the kit. The compounds to be tested were subjected to 5-fold dilution to eight concentration gradients with a row gun. That is, from 40 μM to 0.5 nM, the DMSO concentration was 4%, and a double-well experiment was set up. 5 μL of inhibitor with each concentration gradient were added to the microwell plate, and 5 μL buffer containing 4% DMSO and 5 μL PD-L1-biotin (PD-L1-biotin) (60 nM) were added into well with the maximum signal (Max) and the well with the minimum signal (Min), only 5 μL of buffer was added to the well with the minimum signal (Min), and the incubation was conducted at 25° C. for 20 minutes. After the incubation was completed, 5 μL of diluted PD1-Eu (10 nM) and […] were added to each well. The reaction system was placed at 25° C. for 90 minutes. The TR-FRET signal was read by a multi-label analyzer after the reaction was completed.
Using the equation (sample−Min)/(Max−Min)×100% to convert the raw data into inhibition rate, and the IC50 value can be obtained by curve fitting with four parameters (obtained from log(inhibitor) vs. response—Variable slope mode in GraphPad Prism). Table 1 provides the inhibitory activity of the compounds of the examples of the present disclosure on PD1/PD-L1 binding
Target sequence in this assay (Q9NZQ7 19-239 limits assumed): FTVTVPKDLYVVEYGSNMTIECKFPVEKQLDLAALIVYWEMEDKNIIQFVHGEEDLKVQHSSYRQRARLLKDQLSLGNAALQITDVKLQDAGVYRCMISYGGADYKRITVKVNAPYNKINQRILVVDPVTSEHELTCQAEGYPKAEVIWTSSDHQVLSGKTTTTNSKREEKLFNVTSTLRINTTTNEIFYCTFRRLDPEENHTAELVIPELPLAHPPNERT

The target in assay [2] is T2, PD-L1 in MDA-MR-231 cells (Homo sapiens, UniProt Q9NZQ7).
T2 construct: endogenous in cells; host or cells: MDA-MB-231
T2 sequence (Q9NZQ7 19-290): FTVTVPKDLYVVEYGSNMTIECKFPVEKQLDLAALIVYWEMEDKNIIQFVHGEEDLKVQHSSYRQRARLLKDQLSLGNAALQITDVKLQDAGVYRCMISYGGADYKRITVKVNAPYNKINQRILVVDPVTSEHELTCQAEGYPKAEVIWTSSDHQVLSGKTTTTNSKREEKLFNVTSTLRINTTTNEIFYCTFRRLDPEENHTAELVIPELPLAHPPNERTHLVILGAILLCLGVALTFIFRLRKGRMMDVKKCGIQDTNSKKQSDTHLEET
The assay can be described thus: Effect on expression level of PD-L1 in MDA-MR-231 cells (FACS). Type of assay: cell-based. Particulars: 24 hours incubation, FACS detection of cell surface PD-L1. In a few lines: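 MDA-MB-231 cells (1×10^5/well) were incubated 24 h at 37 °C with 5-fold serially diluted compounds. Cells were detached with 10 mM EDTA, then stained with anti-human PD-L1 and LIVE/DEAD dye (4 °C, 30 min) and fixed. Surface PD-L1 was measured by flow cytometry.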

Assay [3] addresses T1, PD1/PD-L1. The assay can be described thus: NFAT activity test (TCR Activitor/PD-L1 CHO cells with PD-1/NFAT Reporter-Jurkat cells). Type of assay: cell-based. More on the design: host or cells: TCR Activitor/PD-L1 CHO cells; PD-1/NFAT Reporter-Jurkat cells. Particulars: TCR Activitor/PD-L1 CHO cells + PD-1/NFAT Reporter-Jurkat cells, 5 hours, luciferase; for IC50: read-out: IC50, inhibitory activity on PD1/PD-L1 binding (NFAT activity test). In a few lines: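 TCR activator/PD-L1 CHO cells were pretreated 30 min at 37 °C with compound (20 μM to 0.25 nM, 5-fold steps, 2% DMSO). PD-1/NFAT reporter Jurkat cells were then added for 5 h at 37 °C. NFAT-driven luciferase read by Bright-Glo luminescence, normalised to Min/Max, IC50 from 4-parameter fit.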
Target sequence in this assay (Q9NZQ7 19-290): as above

Take `Cc1cc(C(=O)Nc2cccc(-c3cccc(NC(=O)c4ccc(CNCCO)cn4)c3C)c2Cl)nc2c1CCN(C1CCC(O)CC1)C2` (stereo not shown) [Compound 15]: the IC50 stood at 8.86 nM in assay [1], 29.3 nM in assay [2] and 33.9 nM in assay [3]. In addition, in assay [3], the “Maximum effect (induction fold)” value worked out at 3.80 induction fold.
The matching figures for `Cc1cc(C(=O)Nc2cccc(-c3cccc(NC(=O)c4ccc(CNCCO)cn4)c3C)c2Cl)nc2c1CCN(CC(=O)O)C2` [Compound 17]: 1.49 nM, 0.75 nM, 25.1 nM and 4.23 induction fold.
The corresponding values for `Cc1c(NC(=O)c2ccc(CNCCO)cn2)cccc1-c1cccc(NC(=O)c2cc(NCCO)c3c(n2)CN(CCO)CC3)c1Cl` [Compound 18] are 3.16 nM, 70.6 nM, 79.7 nM and 3.77 induction fold.
The matching figures for `Cc1cc(C(=O)Nc2cccc(-c3cccc(Nc4nc(C(F)F)nc5cc(CN6CC[C@@H](O)C6)cnc45)c3C)c2Cl)nc2c1CCN(CC(=O)O)C2` [Compound 23]: 3.68 nM, 0.22 nM, 18.4 nM and 4.84 induction fold.

The values above are taken from patent US20220402917A1, “COMPOUND AS SMALL MOLECULE INHIBITOR PD-1/PD-L1 AND APPLICATION THEREOF” (MEDSHINE DISCOVERY INC., priority 2019, published 2022).
